This experiment deals with Adult patients with moderate to severe chronic atopic dermatitis. Kind of experiment: Randomised, double-blind, placebo-controlled study of oral L-histidine in atopic dermatitis (SCORAD, POEM, TEWL). It is filed as in vivo, human. The protocol:
A randomised, double-blind, placebo-controlled study was conducted as follows: Adult (i.e. greater than 18 years of age) patients with moderate to severe chronic atopic dermatitis were recruited to the study from patients and diagnosis of atopic dermatitis confirmed using the UK Working Party's Diagnostic criteria (see Williams et al, Br. J. Dermatol. 1994; 131:383-96). Exclusion criteria were: patients aged less than 18 years, pregnancy or lactation, liver disease, exposure to natural or artificial ultra-violet radiation, immunosuppression due to disease or medication and Chinese herbal medicine in the 3 months preceding the study. Patients were asked to cease potent topical steroid use during the study. Disease severity was quantified by a research nurse using the well established SCORAD system (see Schmitt et al, European Dermato-Epidemiology Network, J. Allergy Clin. Immunol., 2007; 120:1389-98) and self assessed by the patients using POEM (Patient-Oriented Eczema Measure; see […] et al, J. Arch. Dermatol. 2004; 140-1513-9). Skin barrier function was assessed using a Vapometer® which quantifies Trans Epidermal Water Loss (TEWL; see Fluhr et al, Exp. Dermatol., 2006; 15:483-92). Atopic dermatitis patients were randomised into each of 2 groups and after a 'washout' period of 2 weeks and received either 4.0 g of powder L-histidine or 4.0 g of placebo (the naturally occurring food sweetener, erythritol) powder daily for 4 weeks. The patients were instructed to dissolve either the L-histidine or placebo powder in fruit juice. Neither the patient nor the clinical staff was aware of the identity of treatments administered.

[1] abbreviates: 4.0 g daily oral for 4 weeks, n=4.

Each structure is given as a SMILES string.

With `N[C@@H](Cc1c[nH]cn1)C(=O)O` [L-Histidine, 2-amino-3-(3H-imidazol-4-yl)propanoic acid], under setting [1], the “POEM % change after 4 wks” value was −25%, the “SCORAD % change after 4 wks” value is listed as −22%, the “SCORAD after 4 wks” value turned out to be 25 and the “TEWL % change after 4 wks” value is reported as −50%. Moreover, under “4 weeks of 4.0 g daily”, the “reduction of clinician-scored disease activity (SCORAD)” value is on record as 22%, the “reduction of patient-scored disease activity” value is 25% and the “reduction of transepidermal water loss (TEWL)” value was found to be 50%. The “TEWL after 4 wks” value (Vapometer, 4.0 g daily oral for 4 weeks, n=4) stood at 8. In addition, the SCORAD before (baseline before treatment, 4.0 g daily oral group, n=4) stood at 37. Under “baseline before treatment, Vapometer, 4.0 g daily oral group, n=4”, this compound yielded a TEWL before of 16. The POEM before (baseline before treatment, patient self-assessed, 4.0 g daily oral group, n=4) was 20. For the same compound, the “POEM after 4 wks” value (patient self-assessed, 4.0 g daily oral for 4 weeks, n=4) is 15.

Source of the values: patent US12350256B2, “Histidine and/or histidine derivative for the treatment of inflammatory skin diseases” (Curapel (Scotland) Limited, priority 2008, dated 2025).
